According to US20250296938A1, “Compounds that Interact with the Ras Superfamily for the Treatment of Cancers, Inflammatory Diseases, Rasopathies, and Fibrotic Disease” (SHY Therapeutics, LLC, priority 2018, published 2025):

How the values were obtained:
IL-6 = experiment: Mouse IL6 quantification assay, LPS-stimulated RAW 264.7 macrophages; type: cell-based; details: for inhibition at 10 µM: RAW264.7, 10 μM, LPS (100 ng/ml) added concurrently, 5 hours, RAW 264.7; for inhibition at 30 µM: RAW264.7, 30 μM, LPS-stimulated RAW 264.7 macrophages
Description: (§1) Cell lines: Abelson murine leukemia virus transformed macrophage cell line RAW 264.7 was purchased from ATCC and grown in complete DMEM-High Glucose medium supplemented with penicillin (100 U/mL), streptomycin (100 μg/mL), and 10% heat-inactivated FBS at 37° C. in a humidified incubator with 5% CO2.
(§2) Method: Cells were plated at 25000-40000 cells/well density in a 96-well plate. After a 3-hour incubation, macrophages were starved with DMEM plus 0.5% FBS overnight. The next day the small molecules to be tested were added to the cells in the final concentration of 30 μM (with 0.3% DMSO) 3 hours prior to LPS stimulation (100 ng/ml). After LPS stimulation cells were incubated at 37° C. for 16 h. Alternatively, compounds were also tested at 10 μM and LPS (100 ng/ml) was added concurrently and incubated 5 hours at 37° C. At the end of the incubation periods, culture medium was collected and production of LPS-induced TNF-α and IL-6 cytokine was measured using ELISA detection kits.
(§3) Sandwich ELISA: The ELISA Immunoassays Quantikine Mouse TNF-alpha (catalog number MTA00B) and IL6 (catalog number M6000B) were purchased from R&D Systems Inc., Minneapolis, MN. These 4.5 hours solid phase ELISAs were used to measure mouse TNF-α or IL-6 levels in macrophages culture supernatants. Assays were executed according to the manufacturer specifications.

TNF-α = experiment: Mouse TNF alpha quantification assay, LPS-stimulated RAW 264.7 macrophages; type: cell-based; details: for inhibition at 10 µM: RAW264.7, 10 μM, LPS (100 ng/ml) added concurrently, 5 hours, RAW 264.7, read-out: TNFα % Inhibition; for inhibition at 30 µM: RAW264.7, 30 μM, LPS-stimulated RAW 264.7 macrophages
Description: as §1, §2, §3

Row | Structure (SMILES) | inhibition at 10 µM (IL-6) | inhibition at 10 µM (TNF-α) | inhibition at 30 µM (IL-6) | inhibition at 30 µM (TNF-α)
1 | COCCn1ccnc1-c1nc(O)c2scc(-c3ccc(OCC(C)C)nc3)c2n1 [drawing 763] | 26 to 50% | 1 to 25% |  | 
2 | COc1cccc(-c2sc3nc(-c4nccn4C)nc(NC4CCC(OC)C4)c3c2C)c1F (centres unmarked) [drawing 758] | 1 to 25% | 0% |  | 
3 | O=C(NC1CCCC1)c1nc(-c2ccccn2)nc(O)c1O [drawing 732] |  |  | 76 to 100% | 26 to 50%
4 | COCC1CCN(c2nc(-c3nccn3C)nc3sc(-c4ccn(C)n4)c(-c4ccccc4)c23)C1 (centres unmarked) [drawing 685] |  |  | 76 to 100% | 76 to 100%
5 | COCC1CN(c2nc(-c3nccn3C)nc3sc(-c4cccc(OC)c4F)c(-c4ccc(OC)cc4)c23)C1 [drawing 718] |  |  | 76 to 100% | 76 to 100%
6 | COc1cccc(-c2sc3nc(-c4nccn4C)nc(NC4CCC(OC)C4)c3c2-c2ccccc2)c1F (centres unmarked) [drawing 748] | 76 to 100% | 76 to 100% |  | 
7 | Cc1c(-c2ccn(C)n2)sc2nc(-c3nccn3C)nc(NCCCS(C)(=O)=O)c12 [drawing 781] | 1 to 25% | 1 to 25% |  | 
8 | CO[C@H]1C[C@@H](Nc2nc(-c3ccccn3)nc3sccc23)C1 [drawing 767] | 1 to 25% | 1 to 25% |  | 
9 | Cc1cc(Cn2ccnc2-c2nc(O)c3scc(-c4ccccn4)c3n2)on1 [drawing 668] |  |  | 76 to 100% | 51 to 75%
10 | CCn1cc(Nc2nc(-c3ccccn3)nc(O)c2OC)cn1 [drawing 746] | 76 to 100% | 1 to 25% |  | 
11 | Cn1ccnc1-c1nc(O)c(O)c(C(=O)NC2CCCC2)n1 [drawing 740] |  |  | 0% | 1 to 25%
12 | CO[C@H]1C[C@@H](Nc2nc(-c3nccn3C)nc3sccc23)C1 [drawing 768] | 26 to 50% | 1 to 25% |  | 
13 | COC1CCN(c2nc(-c3nccn3C)nc3sc(-c4ccncc4C)c(-c4ccccc4)c23)C1 (centres unmarked) [drawing 709] |  |  | 76 to 100% | 26 to 50%
14 | CO[C@H]1CC[C@@H](Nc2nc(-c3nccn3C)nc3sc(-c4ccn(C(C)C)n4)c(C)c23)C1 [drawing 784] | 51 to 75% | 26 to 50% |  | 
15 | COCCNc1nc(-c2nccn2C)nc2sc(-c3cc(OC)ccc3Cl)c(-c3ccc(OC)cc3)c12 [drawing 698] |  |  | 51 to 75% | 26 to 50%
16 | COc1ccc(Oc2nc(-c3ccccn3)nc(O)c2OC)cc1 [drawing 724] |  |  | 76 to 100% | 1 to 25%
17 | COCCCNc1nc(-c2nccn2C)nc2sc(-c3ccn(C)n3)c(-c3ccccc3)c12 [drawing 677] |  |  | 76 to 100% | 76 to 100%
18 | CO[C@H]1C[C@@H](Nc2nc(-c3ncc[nH]3)nc3sc(-c4ccn(C)n4)c(-c4ccccc4)c23)C1 [drawing 775] | 76 to 100% | 1 to 25% |  | 
19 | COCCNc1nc(-c2cn(C)cn2)nc2sc(-c3ccccc3Cl)c(-c3ccc(OC)cc3)c12 [drawing 699] |  |  | 76 to 100% | 76 to 100%
20 | CO[C@H]1CC[C@@H](Nc2nc(-c3nccn3C)nc3sc(C(=O)N4CCCC4)c(-c4ccccc4)c23)C1 [drawing 791] | 1 to 25% | 1 to 25% |  | 
21 | COc1cccc(-c2sc3nc(-c4nccn4C)nc(N[C@H]4C[C@@H](OC)C4)c3c2-c2ccccc2)c1F [drawing 756] | 76 to 100% | 51 to 75% |  | 
22 | Cn1ccnc1-c1nc(O)c(O)c(C(=O)N2CCCC2)n1 [drawing 739] |  |  | 0% | 1 to 25%
23 | Cn1ccnc1-c1nc(O)c2scc(-c3ccccn3)c2n1 [drawing 664] |  |  | 76 to 100% | 76 to 100%
24 | COc1nscc1-c1sc2nc(-c3nccn3C)nc(N3CCC(OC)C3)c2c1-c1ccccc1 (centres unmarked) [drawing 714] |  |  | 76 to 100% | 76 to 100%
25 | Oc1nc(-c2ccccn2)nc(CN2CCc3ccccc3C2)c1O |  |  | 0% | 0%
